Measured values as given in article PMC4607639 (Bioorganic & medicinal chemistry letters, 2015).

Columns and labels:
[1] = Aqueous solubility, shake-flask procedure; assay type: physicochemical; conditions: for fold less soluble than the corresponding triazines: pyrimidines 7d, 8c versus triazines 7g, 8f
[2] = test system: MT-2 human T-cells; experiment: Cytotoxicity, inhibition of MT-2 cell growth; assay type: cell-based; conditions: inhibition of MT-2 cell growth by 50%

Structure (SMILES)	fold less soluble than the corresponding triazines [1]	other results
Cc1cn2cc(C#N)cc2c(C)c1Nc1ccnc(Nc2ccc(C#N)cc2)n1 [Compound 7d]	2-4 fold	
N#Cc1ccc(Nc2ncnc(Nc3c(F)cc4cc(C#N)ccc4c3F)n2)cc1 [Compound 8h]		CC50 [2]: no cytotoxicity
Cc1cc2cc(C#N)ccc2c(C)c1Nc1ccnc(Nc2ccc(C#N)cc2)n1 [Compound 8c]	2-4 fold	
Cc1cc2cc(C#N)ccc2c(C)c1Nc1ncnc(Nc2ccc(C#N)cc2)n1 [Compound 8f]		solubility fold greater than for rilpivirine ([1]; versus rilpivirine): ca. 1000 fold
